Results as given in patent publication US7838464B2, “Method for yield improvement in glyphosate-resistent legumes” (priority 2002, dated 2010).

Tested on: soya variety NIDERA AX 4910
Experiment: Field experiments: yield of glyphosate-resistant soya after foliar treatment
Assay type: in vivo
Method: The results shown hereinbelow were obtained in experiments in the, open which were carried out during the […] season in the Argentinian northern pampas. The plots used were arranged randomly relative to one another. Each treatment variant was replicated-four times. The crop plant used was the soya variety NIDERA AX 4910, which is resistant to numerous fungal diseases and to the herbicide glyphosate.
In all 5 experiments, two foliar treatments with glyphosate were carried out 30 or 60 days after planting the soya seeds, using equipment conventionally used under practice conditions. In the experiments 2 and 3, pyraclostrobin was added at “30 days after planting”, while pyraclostrobin was added at “60 days after planting” in the experiments 4 and 5.

Row | Molecule | Yield (experiment 1: glyphosate 360 g a.s./ha at 30 and at 60 days after planting, no pyraclostrobin, open field, 4 replicates) | yield in comparison with the conventional use of glyphosate alone (addition of pyraclostrobin 50 or 100 g a.s./ha to glyphosate at early (30 days) and late (60 days) treatment times)
1 | O=C(O)CNCP(=O)(O)O [glyphosate, N-(phosphonomethyl)glycine] | 100% | 
2 | pyraclostrobin |  | markedly increased the yield
